This assay can be described thus: Inhibition of Streptococcus mutans OMZ65 recombinant sortase A delta-40 mutant using Dabcyl-QALPETGEE-Edans as substrate after 1 hr by fluorescence spectrophotometry.
Regarding `CO[C@@H](Cc1ccc(O)cc1)C(=O)O`, the IC50 was more than 100 µM.

Regarding `O=C(O)/C=C/c1ccc(O)c(O)c1` [CAFFEIC ACID], the IC50 was 20.2 µM. The value for `COc1cc(C[C@@H]2COC(=O)[C@@]2(Cc2ccc(O)c(OC)c2)O[C@@H]2O[C@H](CO)[C@@H](O)[C@H](O)[C@H]2O)ccc1O` was 41.2 µM.

As for Para-Hydroxymercuribenzoic acid, the IC50 came out at 35.1 µM.

In the case of `COc1cc(/C=C/C(=O)O)ccc1O` [FERULATE], the IC50 was more than 100 µM. Take `COc1cc(C[C@H]2COC(=O)[C@@H]2Cc2ccc(O)c(OC)c2)ccc1O` [MATAIRESINOL]: the IC50 was more than 100 µM. The figure for `O=C(/C=C/c1ccc(O)c(O)c1)O[C@H](C(=O)O)[C@@H](OC(=O)/C=C/c1ccc(O)c(O)c1)C(=O)O` is 60 µM; for `COc1cc([C@H]2Oc3c(OC)cc(CCCO[C@@H]4O[C@H](CO)[C@@H](O)[C@H](O)[C@H]4O)cc3[C@H]2CO)ccc1O` it is 37.3 µM; for `O=C(/C=C/c1ccc(O)c(O)c1)O[C@@H](Cc1ccc(O)c(O)c1)C(=O)O` it is 20.1 µM.

Consider `COc1cc([C@@H]2OC[C@@H]3[C@H]2CO[C@H]3c2ccc(O)c(OC)c2)ccc1O` [(+)-PINORESINOL], for which the IC50 was 67.7 µM. The value for `COc1cc([C@H]2Oc3c(OC)cc(CCCO)cc3[C@H]2CO)ccc1O` was 35.9 µM; that for `COc1cc([C@H]2Oc3c(OC)cc(CCCO)cc3[C@H]2CO[C@@H]2O[C@H](CO)[C@@H](O)[C@H](O)[C@H]2O)ccc1O` was 82.8 µM.

Take `COc1cc(C[C@@H]2COC(=O)[C@]2(O)Cc2ccc(O)c(OC)c2)ccc1O`: the 50% inhibitory concentration (IC50) was more than 100 µM.

These data come from ChEMBL document CHEMBL3098064, “Sortase A inhibitory metabolites from the roots of Pulsatilla koreana” (Bioorg Med Chem Lett, 2014).
